Drawing on ChEMBL document CHEMBL3992506, “An in-tether sulfoxide chiral center influences the biophysical properties of the N-capped peptides” (Bioorg Med Chem, 2017), this text covers t1/2, Kd and Drug uptake for 6 molecules.

pKd: −log10 of the molar value. Numbered stars: 1 amine (or outer) side, 2 acyl side, 3 side chain; on linkers, the order of the positions; unused ones are H or OH. Bridge positions count the residues as written; N and C are the ends. Square brackets hold non-standard residues; d marks the D form. Peptide text beside a SMILES is read from it. * marks the point of attachment. 5FAM = O=C1OC2(c3ccc(O)cc3Oc3cc(O)ccc32)c2ccc(C(=O)*)cc21; X1 = O=C(CN(CC[*:3])[*:1])[*:2]; Mpa = O=C(O)CCS

The nature of data set [1]: Stability assessed as trypsin (unknown origin)-mediated compound hydrolysis by measuring compound half life at 250 uM at 37 degC by LC-MS/MS method. Format: ADME. As to conditions: human; call rule not given here.
Another data set concerns the target T1, Estrogen receptor (Homo sapiens, UniProt P03372).
T1 sequence (P03372 whole entry): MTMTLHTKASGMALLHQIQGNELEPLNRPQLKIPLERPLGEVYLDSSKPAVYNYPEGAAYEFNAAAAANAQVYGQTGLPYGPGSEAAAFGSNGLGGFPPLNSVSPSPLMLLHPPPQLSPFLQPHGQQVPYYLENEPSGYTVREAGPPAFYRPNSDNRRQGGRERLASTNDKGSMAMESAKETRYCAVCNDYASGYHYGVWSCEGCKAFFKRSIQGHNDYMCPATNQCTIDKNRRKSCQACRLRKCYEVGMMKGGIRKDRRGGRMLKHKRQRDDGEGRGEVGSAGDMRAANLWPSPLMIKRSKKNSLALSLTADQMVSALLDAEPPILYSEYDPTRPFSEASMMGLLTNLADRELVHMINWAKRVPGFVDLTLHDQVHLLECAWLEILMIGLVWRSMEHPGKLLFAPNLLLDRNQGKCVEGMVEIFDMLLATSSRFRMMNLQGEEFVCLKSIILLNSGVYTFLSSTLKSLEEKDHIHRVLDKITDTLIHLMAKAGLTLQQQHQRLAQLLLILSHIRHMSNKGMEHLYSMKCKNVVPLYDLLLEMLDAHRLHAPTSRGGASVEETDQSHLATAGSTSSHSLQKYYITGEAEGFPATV
Kind of data set: Binding affinity to recombinant human ER-alpha LBD (301 to 553 residues) expressed in Escherichia coli BL21(DE3) after 1 hr by fluorescence polarization assay. (In general: In fluorescence polarisation assays a small probe gives low polarisation when free and higher when bound to something large.)

The nature of data set [2]: Drug uptake in HEK293T cells at 10 uM after 4 hrs by flow cytometry. Format: ADME, cell-based. The following applies: human, hek-293t.
The nature of data set [3]: Drug uptake in cytoplasm of HEK293T cells at 10 uM after 16 hrs by DAPI staining based confocal microscopic method. Format: ADME, cell-based. As to conditions: human.

In general, pKd refers to −log10 of the Kd, conventionally taken in molar units.

As for `CC[C@H](C)[C@H](NC(=O)CN1CC[S+]([O-])CCC(=O)N[C@@H](CCCNC(=N)N)C(=O)N[C@@H](CCCCN)C1=O)C(=O)N[C@@H](CC(C)C)C(=O)N[C@@H](CCCNC(=N)N)C(=O)N[C@@H](CCCNC(=N)N)C(=O)N[C@@H](CC(C)C)C(=O)N[C@@H](CC(C)C)C(=O)N[C@@H](CCC(N)=O)C(=O)NCC(=O)N[C@@H](Cc1c[nH]c2ccccc12)C(N)=O` (single isomer, unassigned; isomer 2), the t1/2 in data set [1] amounted to 2.1 min. For `CC[C@H](C)[C@H](NC(=O)CN1CC[S+]([O-])CCC(=O)N[C@@H](CCCNC(=N)N)C(=O)N[C@@H](CCCCN)C1=O)C(=O)N[C@@H](CC(C)C)C(=O)N[C@@H](CCCNC(=N)N)C(=O)N[C@@H](CCCNC(=N)N)C(=O)N[C@@H](CC(C)C)C(=O)N[C@@H](CC(C)C)C(=O)N[C@@H](CCC(N)=O)C(=O)NCC(=O)N[C@@H](Cc1c[nH]c2ccccc12)C(N)=O` (stereo in doubt), the t1/2 in data set [1] was found to be 5.9 min.

As to `CC[C@H](C)[C@H](NC(=O)CN1CC[S+]([O-])CCC(=O)N[C@@H](CCCNC(=N)N)C(=O)N[C@@H](CCCCNC(=O)c2ccc3c(c2)C(=O)OC32c3ccc(O)cc3Oc3cc(O)ccc32)C1=O)C(=O)N[C@@H](CC(C)C)C(=O)N[C@@H](CCCNC(=N)N)C(=O)N[C@@H](CCCNC(=N)N)C(=O)N[C@@H](CC(C)C)C(=O)N[C@@H](CC(C)C)C(=O)N[C@@H](CCC(N)=O)C(=O)NCC(=O)N[C@@H](Cc1c[nH]c2ccccc12)C(N)=O` (stereo in doubt; form 2), the pKd at Estrogen receptor was 6.41. In addition, the Drug uptake result in data set [2] and in data set [3] was “Active” throughout. In the case of `CC[C@H](C)[C@H](NC(=O)CN1CC[S+]([O-])CCC(=O)N[C@@H](CCCNC(=N)N)C(=O)N[C@@H](CCCCNC(=O)c2ccc3c(c2)C(=O)OC32c3ccc(O)cc3Oc3cc(O)ccc32)C1=O)C(=O)N[C@@H](CC(C)C)C(=O)N[C@@H](CCCNC(=N)N)C(=O)N[C@@H](CCCNC(=N)N)C(=O)N[C@@H](CC(C)C)C(=O)N[C@@H](CC(C)C)C(=O)N[C@@H](CCC(N)=O)C(=O)NCC(=O)N[C@@H](Cc1c[nH]c2ccccc12)C(N)=O` (stereo in doubt; form 1), the negative-log Kd (pKd) on Estrogen receptor was 6.74. On to `CC[C@H](C)[C@H](NC(=O)CN1CCSCCC(=O)N[C@@H](CCCNC(=N)N)C(=O)N[C@@H](CCCCNC(=O)c2ccc3c(c2)C(=O)OC32c3ccc(O)cc3Oc3cc(O)ccc32)C1=O)C(=O)N[C@@H](CC(C)C)C(=O)N[C@@H](CCCNC(=N)N)C(=O)N[C@@H](CCCNC(=N)N)C(=O)N[C@@H](CC(C)C)C(=O)N[C@@H](CC(C)C)C(=O)N[C@@H](CCC(N)=O)C(=O)NCC(=O)N[C@@H](Cc1c[nH]c2ccccc12)C(N)=O` ([Mpa]RK(5FAM)[X1]ILRRLLQGW-NH2; thioether 1-4), for which, on Estrogen receptor, the pKd is 6.67.

With `CC[C@H](C)[C@H](NC(=O)CNC(=O)[C@H](CCCCNC(=O)c1ccc2c(c1)C(=O)OC21c2ccc(O)cc2Oc2cc(O)ccc21)NC(=O)[C@@H](N)CCCNC(=N)N)C(=O)N[C@@H](CC(C)C)C(=O)N[C@@H](CCCNC(=N)N)C(=O)N[C@@H](CCCNC(=N)N)C(=O)N[C@@H](CC(C)C)C(=O)N[C@@H](CC(C)C)C(=O)N[C@@H](CCC(N)=O)C(=O)NCC(=O)N[C@@H](Cc1c[nH]c2ccccc12)C(=O)O` (H-RK(5FAM)GILRRLLQGW-OH), the pKd at Estrogen receptor is 6.79.
